Drawing on ChEMBL document CHEMBL1154585, “Lorneamides A and B: two new aromatic amides from a southern Australian marine actinomycete” (2000), this text covers LD99 for one molecule.

The structures appear in SMILES notation.

For this assay, the system named is Bacillus subtilis. Put plainly: Antibacterial activity against Bacillus subtilis. The class given is functional.

Turning to `CCCC(O)/C=C/c1cc(C)ccc1/C=C/CC(N)=O` (stereo unspecified) [LORNEAMIDE A], the LD99 was 50 µg/mL.
